Here are results for two compounds from publication PMC10823514, “Target Identification of a Class of Pyrazolone Protein Aggregation Inhibitor Therapeutics for Amyotrophic Lateral Sclerosis” (ACS Central Science, 2023).

One may read the pKd as −log10 of the Kd, conventionally taken in molar units.

Data set [1] in a line: PRAPP photolysis under 312 nm UV, followed by HPLC. Format: physicochemical. The settings on record: PBS under 312 nm UV irradiation; irradiation at 312 nm, 100 μM in PBS pH 7.4; read-out: photolysis half-life (T1/2). As for the experimental part:
The PRAPP (100 μM) was dissolved in PBS (50 mM, pH 7.4 [1% DMSO v/v]) and irradiated with UV light (λ = 312 nm, 120 V, 60 Hz, 0.2 A [Spectroline model EB-160C], distance ∼4 cm). UV light was removed from the reaction mixtures at varying time points (1, 2, 5, 10, and 20 min) and immediately analyzed by HPLC-UV–vis278 nm (injection volume of 5 μL). PRAPP % remaining was determined based on the area under the curve (AUC) of the UV–vis278 nm chromatogram. A first-order exponential decay curve was generated based on the AUC of the UV–vis chromatogram at 0, 1, 2, 5, 10, and 20 min and used to determine t1/2 of photolysis.

In data set [2] the test system is 25 kDa covalently modified band in HAP1 cells. As to the kind of experiment: Photoaffinity labeling with HAP1 wild-type and Hsp27 knockout cells. The class given is binding. To be noted: 15 μM PRAPP. An excerpt: First, we conducted photoaffinity labeling studies with wild-type (WT) HAP1 cells to verify the existence of the 25 kDa covalent modification that we observed in PC12 cells.
Figure 7 Photoaffinity Labeling Experiments with HAP1 cells. […] The nonspecific background modifications remain unchanged with increasing concentration of P3, further confirming the 25 kDa covalently modified band as a true target; (B) comparison of the photoaffinity labeling experiments with HAP1 wild-type (WT) cells and Hsp27 knockout (KO) cells at 15 μM PRAPP concentration.

The target of data set [3] is T1, 14-3-3-Q (Homo sapiens, UniProt P27348).
T1 construct: purchased Abchem (so in the source)
T1 sequence (P27348 1-245): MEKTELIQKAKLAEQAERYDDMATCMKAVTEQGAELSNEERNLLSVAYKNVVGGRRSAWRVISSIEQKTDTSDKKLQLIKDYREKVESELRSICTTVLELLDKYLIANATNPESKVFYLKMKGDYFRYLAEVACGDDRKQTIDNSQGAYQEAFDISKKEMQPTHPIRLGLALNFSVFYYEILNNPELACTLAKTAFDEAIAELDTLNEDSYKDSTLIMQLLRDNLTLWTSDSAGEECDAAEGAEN
As to the kind of experiment: Fluorescent thermal shift assay (FTSA) with 14-3-3-Q. Format: binding. Here is the method:
(§1) His-tagged 14-3-3-E, B, and H plasmids were purchased from Addgene (plasmid ID# 31562, 39128, and 38814, respectively). E. coli (BL21) were transformed with extracted plasmids via heat shock and plated on selected media. Individual colonies were selected, grown, and sequenced to confirm gene presence. 1 L cultures were grown to an OD600 of 0.6 at 37 °C and 220 rpm. Protein expression was induced with 1 mM IPTG and expressed for 12 h at 100 rpm and room temperature (approximately 25 °C). Cells were spun down at 4000 rpm for 15 min at 4 °C and resuspended in lysis buffer containing 50 mM Tris (7.4), 150 mM NaCl, 0.08% DDM, 5 mM imidazole, and 5% glycerol (with an EDTA-free complete mini protease inhibitor cocktail). Cells were lysed via sonication, and the lysate was separated from cell debris by centrifugation at 15,000 rpm, 4 °C, for 45 min. The His-tagged protein was purified using QIAGEN Ni-NTA superflow columns, and the His-tag was removed with TEV protease. His-tag-removed proteins were further purified by size exclusion chromatography. His tag removal and size exclusion chromatography purification were done at the Northwestern University Protein Production core. […]
(§2) All of the FTSA experiments were conducted in HEPES buffer (60 mM HEPES, 150 mM NaCl, pH 7.4). […] The fluorescence was measured on a Bio-Rad CFX384 real-time PCR instrument.

The target in data set [4] is T2, 14-3-3-B (Homo sapiens, UniProt P31946).
T2 construct: His-tag (TEV-cleavable) (cleaved yes); host or cells: E. coli (BL21)
T2 sequence (P31946 1-246): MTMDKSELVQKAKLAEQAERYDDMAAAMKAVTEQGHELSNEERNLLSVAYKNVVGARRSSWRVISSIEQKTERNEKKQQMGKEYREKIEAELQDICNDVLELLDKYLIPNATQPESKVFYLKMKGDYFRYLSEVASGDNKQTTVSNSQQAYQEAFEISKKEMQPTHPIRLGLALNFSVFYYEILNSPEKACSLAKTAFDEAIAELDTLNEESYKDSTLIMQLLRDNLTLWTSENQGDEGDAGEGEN
As to the kind of experiment: Fluorescent thermal shift assay (FTSA) with 14-3-3-B. Format: binding. The settings on record: 0 and 100 μM P2. As for the experimental part: as §1, §2

pKd: −log10 of the molar value.

With `C#CCN(Cc1cc(=O)[nH][nH]1)Cc1c(F)c(F)c(N=[N+]=[N-])c(F)c1F` [PRAPP, 5-(((4-Azido-2,3,5,6-tetrafluorobenzyl)(prop-2-yn-1-yl)amino)methyl)-1,2-dihydro-3H-pyrazol-3-one], the half-life at 100 μM in data set [1] was determined as 3.12 min. The “intensity of the 25 kDa covalently modified band in Hsp27 KO versus WT cells” value in data set [2] is “remains unchanged”.

`O=c1cc(COc2cc(Cl)cc(Cl)c2)[nH][nH]1` [P2]: in data set [3] (SYPRO orange), the “Tm shift (ΔTm)” value came out at 1.1 °C. For the same compound, the pKd in data set [3] (fit of ΔTm versus concentration, n = 2, read-out: Kd^app) was 5.36. Further, in data set [4], the “binding (Tm shift)” value is reported as “no binding”.
